According to article PMC4915154, “Development of background-free tame fluorescent probes for intracellular live cell imaging” (Nature Communications, 2016):

Experiments:
[1] = tested on: U-2 OS and CHO cell lines; assay: Cellular retention and efflux characteristics test (before/after washing imaging, retaining ratio RR); type: cell-based, human (U-2 OS), Chinese hamster (CHO); conditions: 30 min; for Experimentally observed group: U-2 OS and CHO cell lines, probe 1 μM, imaged before and 10 min after washing; for Cellular retention after washing (probe signal): CHO and U-2 OS cells, 1 uM probe
From the text: To expedite an efficient strategy for ‘tame' probe development, we set up a system to predict cellular properties of fluorescent probes via phenotypic high-throughput screening (HTS), cheminformatics and statistical analysis (Fig. 1a). As the first step, we conducted phenotypic HTS to investigate cell permeability and nonspecific binding properties of the probes in a training set. We tested about 2,085 probes consisted of a wide range photophysical properties from numerous fluorophore cores such as BODIPY[12][13][14][15], xanthone, rosamine, cyanine[19][20] and ACEMAN[21]. Their cellular influx and efflux profiles were examined in two types of mammalian cells, U-2 OS and CHO. These cell lines were chosen due to their flexibility in genetic manipulation, adaptability to various culture conditions and versatility in wide biomedical research such as gene expression, toxicity screening, recombinant protein and live cell imaging. Each of the probes was added into live cells and cell image was taken after 30 min by ImageXpress Micro cellular imaging system (Molecular Device). The cells were then washed with fresh growth media, and after another 10 min, a second image was taken to check the completeness of probe washing out of the cell. The first and second imaging facilitated influx (before washing, BW) and efflux (after washing, AW) measurements, respectively (Supplementary Fig. 1).
To measure the influx and efflux of the probes, an automated quantitative intensity-based image analysis was then performed by Multi-Wavelength Cell Scoring analysis using MetaXpress High Content Image software. Retaining ratio (RR, per cent ratio of the average intensity of AW image over BW image) was computed to classify probes into the three phenotypic groups. For each cell in the image, the nuclei and cell region were segmented to provide approximate cellular boundaries. Fluorescence intensity was then quantified on a cell-by-cell basis by the following steps: (i) selecting the image of interest, (2) specifying the width of the stained cell area, (3) adjusting the intensity above local background for detection specificity, and (4) calculating fluorescence intensity with specified reporting parameters. Average fluorescence intensity for each BW and AW images was calculated for each probes and cell lines, and was then used as input in RR calculation (Supplementary Figs 2 and 3).
U-2 OS, a human osteosarcoma cell line, and CHO, a Chinese hamster ovary cell line, (from ATCC) were cultured in Dulbecco's modified eagle's medium (DMEM) (Invitrogen, CA, USA) supplemented with fetal bovine serum (FBS) (10%) and penicillin–streptomycin (1%). Materials used in the cell culture were purchased from Invitrogen. U-2 OS and CHO cells were seeded onto 96-well plate in growth media at 37 °C in the presence of 5% CO2 and were then allowed to attach and grow to 70–80% confluence. Library probes were dissolved in dimethylsulfoxide (DMSO) to make the 1 mM solution, and stored in −20 °C. Before HTS experiment, the growth media was aspirated and replaced by 200 μl fresh growth media containing probes in final concentration of 1 μM and nuclei dye Hoechst 33342. Plates were incubated for 30 min at 37 °C then were imaged using ImageXpress Micro cellular imaging system (Molecular Device) with × 10 objective lens. Immediately after image acquisition, the cells were washed with fresh growth media, and transferred back to a 37 °C cell incubator for further incubation. After 10 min, cells were again imaged (AW image). The first imaging step allowed influx measurement of BW image , while the second imaging step allowed out-flux measurement of AW image. Images of two regions per well were acquired with DAPI, FITC, TRITC or Texas Red filter sets according to probes' excitation and emission wavelength. Experiment was performed in duplicate. Cellular retention and efflux characteristics test for other synthesized probes were also done by using the same protocol. […]

[2] = tested on: azide-tagged intracellular organelles in U-2 OS cells; assay: Live cell SPAAC labelling of azide-tagged organelles (mitochondria, lysosome, golgi apparatus); type: cell-based, human; conditions: U-2 OS cells pre-treated with TPP-Az, Sphingo-Az or Morph-Az, 2 μM probe, 1 h, 37 °C
From the text: Next, we investigated intracellular imaging in live cells using CO-1. We synthesized various azide-bearing reporters: TPP-Az, a triphenylphosphonium analogue which accumulates in mitochondria; Sphingo-Az, a ceramide analogue to target golgi apparatus; and Morph-Az, an azide derivative with morpholine moiety as a directing group for lysosome (Fig. 3a). SPAAC covalent labelling reactions between CO-1 and all azide reporters in vitro were clean and rapid. We anticipated that the cell permeable CO-1 is capable of labelling any azide reporters effectively, regardless the reporters' cellular localization. We added 2 μM CO-1 to the growth media of U-2 OS cells pre-treated with TPP-Az, Sphingo-Az or Morph-Az separately. Confocal fluorescence images were then taken after probe washing.
Figure 3 Live cell imaging with CO-1. (a) Chemical structures and schematic illustration of the covalent labelling of azide-tagged organelles using CO-1 in live cells. (b) Fluorescence imaging of mitochondria, lysosome and golgi apparatus in U-2 OS cells labelled with CO-1. Cells pre-treated with TPP-Az, Morph-Az or Sphingo-Az were incubated with 2 μM CO-1 in growth media at 37 °C for 1 h and followed by counterstaining with organelle trackers. Scale bar, 15 μm. (c) Fluorescence imaging of histone H2B in live U-2 OS. U-2 OS cells were co-transfected with plasmids pIre-Azi3 and pmH2B-6-mKate2-16tag to incorporate UAA Azi into H2B-mKate2 at site 16. After Azi incorporation, cells were labelled with 10 μM CO-1 for 90 min at 37 °C. Cells were then washed and imaged. The mKate2 (red) signals were detected in cell nuclei only, and colocalized with the CO-1 (green) signals in the merged image. Scale bar, 5 μm.
U-2 OS cells were treated with 5 μM TPP-Az, in culture media for 2 h at 37 °C. After incubation, cells were washed and added with 2 μM CO-1 probe. Labelling was allowed to proceed for 1 h at 37 °C in the incubator chamber. […]
Fluorescence imaging of mitochondria, lysosome and golgi apparatus in U-2 OS cells labeled with CO-1H. […] In contrast to CO-1, high fluorescence background from CO-1H was observed. […]

[3] = Spectroscopic properties (absorbance, emission, extinction coefficient, quantum yield); type: physicochemical; conditions: 10 μM in DMSO
Method: Supplementary Table 9. Spectrocopic properties and purity table for CO-1 and CO-1H.
Calculated mass, experimental mass, absorbance maximum (λabs), fluorescent emission maximum (λem), extinction coefficient (ε), quantum yield (Φ), and purity. mass m/z λabs λem ε Purity […]
Absorbance and fluorescence emission data were recorded by a Synergy 4, Biotek Inc. fluorescent plate reader at 10 μM concentration in DMSO in 96-well plates. HRMS a: found mass (M-H), b: tetramethyl BODIPY was used as standard, c: purity data was calculated on the basis of the integration in HPLC trace at 254 nm.

| SMILES | Experimentally observed group [1] | other results |
| --- | --- | --- |
| Cc1cc(/C=C/c2ccc(B(O)O)cc2)n2c1C(c1ccc(N)cc1)=C1C=CC=[N+]1[B-]2(F)F [BOR-1H] | H-group (those with RR >5% were classified into H-group) | – |
| Cc1cc(/C=C/c2ccc(B(O)O)cc2)n2c1C(CCC(=O)N1CCOCC1)=C1C=CC(CCC(=O)N(C)C)=[N+]1[B-]2(F)F [BOR-1] | L-group (Probes (FI(BW) >200) with rapid efflux were observed to have a RR of <5%, and thus were classified into L-group) | Cellular retention after washing (probe signal) [1]: significantly decreased after washing |
| COC(=O)c1ccc(C2=C3C(C)=CC(C)=[N+]3[B-](F)(F)n3c(/C=C/c4ccc(B(O)O)cc4)cc(C)c32)cc1 [BOR-2H] | H-group (those with RR >5% were classified into H-group) | – |
| Cc1cc(C)n2c1C(CCC(=O)N1CCOCC1)=C1C=CC(CCC(=O)NCCC(=O)N3Cc4ccccc4C#Cc4ccccc43)=[N+]1[B-]2(F)F [CO-1H] | H-group (those with RR >5% were classified into H-group) | Cellular retention after washing (probe signal) [1]: retained inside the cells; Fluorescence background after washing [2]: high-fluorescence background; ε [3]: 83333 M⁻¹ cm⁻¹; λabs [3]: 500 nm; λem [3]: 520 nm; QY (Φ) ([3]; tetramethyl BODIPY as standard): 0.83 |
| NCCNC1=C2C=CC=[N+]2[B-](F)(F)n2cccc21 [CS-2] | L-group (Probes (FI(BW) >200) with rapid efflux were observed to have a RR of <5%, and thus were classified into L-group) | – |
| CCc1c(C)c2n(c1C)[B-](F)(F)[N+]1=CC=CC1=C2SC [CS-3] | L-group (Probes (FI(BW) >200) with rapid efflux were observed to have a RR of <5%, and thus were classified into L-group) | – |
| CCc1c(C)c2n(c1C)[B-](F)(F)[N+]1=CC=CC1=C2 [CS-8] | L-group (Probes (FI(BW) >200) with rapid efflux were observed to have a RR of <5%, and thus were classified into L-group) | – |
| COC1=C2C=CC(C)=[N+]2[B-](F)(F)n2c(C)ccc21 [CS-11] | L-group (Probes (FI(BW) >200) with rapid efflux were observed to have a RR of <5%, and thus were classified into L-group) | – |
| F[B-]1(F)n2cccc2C(N2CCOCCOCCOCC2)=C2C=CC=[N+]21 [CS-13] | L-group (Probes (FI(BW) >200) with rapid efflux were observed to have a RR of <5%, and thus were classified into L-group) | – |
| F[B-]1(F)n2cccc2C(N2CCOCCOCCOCCOCC2)=C2C=CC=[N+]21 [CS-14] | N-group (Probes in which BW images having FI(BW) ≤200 were classified as N-group) | – |
| CC1=[N+]2C(=C(N3CCNCC3)c3ccc(C)n3[B-]2(F)F)C=C1 [CS-42] | L-group (Probes (FI(BW) >200) with rapid efflux were observed to have a RR of <5%, and thus were classified into L-group) | – |
| CCOC(=O)CCNC1=C2C=CC(CC)=[N+]2[B-](F)(F)n2c(CC)ccc21 [CS-56] | L-group (Probes (FI(BW) >200) with rapid efflux were observed to have a RR of <5%, and thus were classified into L-group) | – |
| CC(C)(C)NC1=C2C=CC=[N+]2[B-](F)(F)n2cccc21 [CS-101] | L-group (Probes (FI(BW) >200) with rapid efflux were observed to have a RR of <5%, and thus were classified into L-group) | – |
